According to doi:10.1101/2025.06.29.662197v2 (biorxiv, 2026):

Experiments:
Assay type in all cases: biochemical
[1] = biological target: human HRI (Carna Bioscience # 05-154) (Homo sapiens, UniProt Q9BQI3); test: LanthaScreen TR-FRET kinase assay, GFP-eIF2alpha
[2] = biological target: human GCN2 (full length, purified; Carna Bioscience # 05-153) (Homo sapiens, UniProt Q9P2K8); test: LanthaScreen TR-FRET kinase assay, GFP-eIF2alpha
[3] = biological target: human PKR (Carna Bioscience # 05-156) (Homo sapiens, UniProt P19525); test: LanthaScreen TR-FRET kinase assay, GFP-eIF2alpha
[4] = biological target: full-length human GCN2 (N-terminal twin StrepII tag) (Homo sapiens, UniProt Q9P2K8); test: in vitro kinase assay, immunoblot of p-Ser51 eIF2alpha; details: 100 uM ATP, 2 uM full-length eIF2alpha, 30 °C, 20 min, no tRNA
full-length human GCN2 (N-terminal twin StrepII tag), sequence (Q9P2K8 whole entry): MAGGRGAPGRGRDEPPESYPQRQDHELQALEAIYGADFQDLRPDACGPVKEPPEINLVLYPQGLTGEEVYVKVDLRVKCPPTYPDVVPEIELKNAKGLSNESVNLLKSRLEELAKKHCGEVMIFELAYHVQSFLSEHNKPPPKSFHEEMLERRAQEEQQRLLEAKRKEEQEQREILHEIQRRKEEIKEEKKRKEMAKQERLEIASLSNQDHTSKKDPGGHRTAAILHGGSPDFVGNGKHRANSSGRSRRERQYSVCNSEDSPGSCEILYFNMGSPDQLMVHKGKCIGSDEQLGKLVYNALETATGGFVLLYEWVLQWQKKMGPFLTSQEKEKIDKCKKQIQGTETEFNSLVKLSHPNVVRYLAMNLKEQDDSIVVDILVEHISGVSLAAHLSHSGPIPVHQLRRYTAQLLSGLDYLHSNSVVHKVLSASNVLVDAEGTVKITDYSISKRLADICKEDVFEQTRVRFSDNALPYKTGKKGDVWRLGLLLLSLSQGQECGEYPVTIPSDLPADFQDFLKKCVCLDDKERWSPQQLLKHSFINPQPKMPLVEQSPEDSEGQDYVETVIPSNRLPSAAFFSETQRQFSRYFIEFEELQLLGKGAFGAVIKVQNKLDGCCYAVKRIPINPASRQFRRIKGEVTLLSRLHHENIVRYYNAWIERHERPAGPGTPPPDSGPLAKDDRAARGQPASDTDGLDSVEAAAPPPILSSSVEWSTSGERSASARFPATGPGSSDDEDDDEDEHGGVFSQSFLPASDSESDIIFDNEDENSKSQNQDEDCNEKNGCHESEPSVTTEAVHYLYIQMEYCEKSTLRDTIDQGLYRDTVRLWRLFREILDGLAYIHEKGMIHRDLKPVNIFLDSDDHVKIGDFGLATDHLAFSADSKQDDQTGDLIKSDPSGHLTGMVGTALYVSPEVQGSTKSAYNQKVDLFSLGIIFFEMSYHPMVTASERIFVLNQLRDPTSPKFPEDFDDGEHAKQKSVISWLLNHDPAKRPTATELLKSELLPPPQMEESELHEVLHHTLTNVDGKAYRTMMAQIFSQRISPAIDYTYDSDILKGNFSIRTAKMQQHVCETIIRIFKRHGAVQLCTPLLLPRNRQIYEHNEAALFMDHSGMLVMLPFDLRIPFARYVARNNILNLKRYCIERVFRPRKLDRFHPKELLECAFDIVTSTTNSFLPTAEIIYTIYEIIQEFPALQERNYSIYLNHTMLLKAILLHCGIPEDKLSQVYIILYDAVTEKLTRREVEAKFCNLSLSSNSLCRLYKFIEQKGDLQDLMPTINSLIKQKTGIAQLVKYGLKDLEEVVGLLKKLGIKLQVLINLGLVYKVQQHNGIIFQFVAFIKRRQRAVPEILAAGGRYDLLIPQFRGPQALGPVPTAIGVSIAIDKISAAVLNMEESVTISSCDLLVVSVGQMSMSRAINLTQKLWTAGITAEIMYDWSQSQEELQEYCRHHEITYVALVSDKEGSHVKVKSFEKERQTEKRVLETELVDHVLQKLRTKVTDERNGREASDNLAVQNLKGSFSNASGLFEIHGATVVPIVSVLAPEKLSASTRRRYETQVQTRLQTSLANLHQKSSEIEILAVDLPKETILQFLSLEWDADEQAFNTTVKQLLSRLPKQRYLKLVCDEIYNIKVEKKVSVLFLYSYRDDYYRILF

human GCN2 (full length, purified; Carna Bioscience # 05-153), sequence (Q9P2K8 whole entry): as above
human HRI (Carna Bioscience # 05-154), sequence (Q9BQI3 whole entry): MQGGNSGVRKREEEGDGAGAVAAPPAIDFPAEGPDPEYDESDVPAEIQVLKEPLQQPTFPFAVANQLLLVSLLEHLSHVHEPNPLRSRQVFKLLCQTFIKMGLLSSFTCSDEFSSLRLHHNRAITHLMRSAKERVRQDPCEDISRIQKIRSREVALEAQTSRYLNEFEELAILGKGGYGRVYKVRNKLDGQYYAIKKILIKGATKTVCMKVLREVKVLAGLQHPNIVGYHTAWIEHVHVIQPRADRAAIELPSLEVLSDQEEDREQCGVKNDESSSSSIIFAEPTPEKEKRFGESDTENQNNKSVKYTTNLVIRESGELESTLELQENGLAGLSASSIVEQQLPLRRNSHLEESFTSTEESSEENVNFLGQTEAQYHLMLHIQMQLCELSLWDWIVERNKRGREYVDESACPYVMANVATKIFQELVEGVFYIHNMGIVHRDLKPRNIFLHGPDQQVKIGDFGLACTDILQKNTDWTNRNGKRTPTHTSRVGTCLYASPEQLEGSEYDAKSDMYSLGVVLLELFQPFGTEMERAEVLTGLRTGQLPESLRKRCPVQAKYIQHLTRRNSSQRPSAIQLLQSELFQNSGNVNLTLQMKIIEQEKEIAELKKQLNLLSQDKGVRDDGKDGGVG

Row | IC50 [1] [µM] | IC50 [2] [µM] | IC50 [3] [µM] | fold activation [4] | Compound
1 | 0.00276 | 0.00155 | 3.26 |  | COc1ncc(Cl)cc1S(=O)(=O)Nc1ccc(F)c(C#Cc2cnc(N)nc2)c1F [GCN2iB]
2 |  | > 3 | 4.5 |  | Cc1nn(-c2ccccc2)c2sc(C(=O)Nc3ccc(S(=O)(=O)NCc4ccco4)cc3)cc12 [compound 18, N-(4-{[(furan-2-yl)methyl]sulfamoyl}phenyl)-3-methyl-1-phenyl-1H-thieno[2,3-c]pyrazole-5-carboxamide]
3 |  | > 3 | 3.75 | ~ 40 fold | Cc1nc(N)sc1-c1csc(Nc2ncccn2)n1 [compound 20, 4’-methyl-N∼2∼-2-pyrimidinyl-4,5’-bi-1,3-thiazole-2,2’-diamine]
4 |  | > 3 |  |  | CS(=O)(=O)c1ncc(-c2ccc(Br)cc2)cn1 [compound 21, 5-(4-bromophenyl)-2-(methylsulfonyl)pyrimidine]
